Among the test systems are EKVX NSCLC; PC-3 prostate; CAKI-1 renal; BT-549 breast; MDA-N; A549 NSCLC; HCT-116 colon; SNB-75 CNS; SW-620 colon; SK-MEL-5 melanoma; KM12 colon; SF-268 CNS; A498 renal; SF-295 CNS; RXF 393 renal; HCC-2998 colon.
Common to all, as to assay: growth of human tumour cells (NCI), 48 h

Molecules are shown by their SMILES.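 Method: 48-hour compound exposure of cells in 96-well plates, five concentrations, linear interpolation of endpoints. TGI is the concentration that stops growth completely.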

Take `COn1cc(C=O)c2ccccc21`: the TGI was > 100 µM with EKVX NSCLC; > 100 µM in the assay with PC-3 prostate; > 100 µM with CAKI-1 renal; > 100 µM in the assay with BT-549 breast; 62.7 µM in the assay on MDA-N; > 100 µM in the assay with A549 NSCLC. For the same compound, the TGI in the assay on HCT-116 colon is > 100 µM; with SNB-75 CNS it was > 95.1 µM; in the assay with SW-620 colon, > 100 µM; in the assay on SK-MEL-5 melanoma, > 100 µM; with KM12 colon it was > 56.5 µM; with SF-268 CNS, > 100 µM. For the same compound, the TGI was 3.97 µM in the assay on A498 renal, > 95.9 µM in the assay on SF-295 CNS, > 100 µM in the assay on RXF 393 renal and 53.7 µM with HCC-2998 colon.
As for `COC(CN(C(=O)c1ccccc1)C1CCC2(SCCS2)c2[nH]c3ccccc3c21)OC` (stereo not drawn), the TGI in the assay on EKVX NSCLC was > 100 µM; in the assay with PC-3 prostate it was 77.1 µM; in the assay on CAKI-1 renal, > 100 µM; in the assay on BT-549 breast it was > 100 µM; in the assay with MDA-N, 49 µM; in the assay with A549 NSCLC, > 100 µM. Also, the TGI with HCT-116 colon, with SNB-75 CNS, with SW-620 colon, with SK-MEL-5 melanoma, in the assay on KM12 colon and with SF-268 CNS was > 100 µM in each case. Besides, the TGI in the assay with A498 renal was > 100 µM; with SF-295 CNS, 13.9 µM; with RXF 393 renal, > 100 µM; with HCC-2998 colon it was > 100 µM.
As for `COc1cc(/C=C2\C[C@H]3[C@@H]4CC=C5C[C@@H](O)CC[C@]5(C)[C@H]4CC[C@]3(C)C2=O)cc(OC)c1OC`, the TGI with EKVX NSCLC was > 100 µM; in the assay on PC-3 prostate, > 100 µM; with CAKI-1 renal it was > 100 µM; in the assay with BT-549 breast, > 100 µM; in the assay with MDA-N, 87.1 µM; in the assay on A549 NSCLC, > 100 µM. Besides, the TGI in the assay with HCT-116 colon is 47.3 µM; with SNB-75 CNS it was 96.3 µM; in the assay on SW-620 colon, > 100 µM; with SK-MEL-5 melanoma, 31.9 µM; in the assay on KM12 colon it was > 100 µM; in the assay with SF-268 CNS, > 100 µM. The TGI in the assay on A498 renal was > 100 µM; in the assay on SF-295 CNS, 52.7 µM; in the assay on RXF 393 renal, 58 µM; with HCC-2998 colon, 98.1 µM.
Consider `COc1cccc(OC)c1/C=C1\OC(=O)c2cccc(OC)c21`, for which the TGI with EKVX NSCLC was > 100 µM; in the assay on PC-3 prostate, > 100 µM; in the assay on CAKI-1 renal, > 75.2 µM; in the assay with BT-549 breast, > 90.6 µM; in the assay on MDA-N it was 3.32 µM; with A549 NSCLC it was > 100 µM. For the same compound, the TGI with HCT-116 colon is > 100 µM; in the assay on SNB-75 CNS it was 17.9 µM; in the assay on SW-620 colon, > 100 µM; in the assay with SK-MEL-5 melanoma, > 100 µM; in the assay with KM12 colon it was > 100 µM; with SF-268 CNS it was > 100 µM. The TGI with A498 renal was 32.3 µM; with SF-295 CNS it was > 28.2 µM; with RXF 393 renal it was 65 µM; in the assay on HCC-2998 colon, > 100 µM.
Regarding `CN(C)C1=Nc2ccccc2C(=S)N2CSCC12` (stereo not drawn), the TGI in the assay with EKVX NSCLC was > 100 µM; in the assay with PC-3 prostate, > 100 µM; in the assay on CAKI-1 renal, 45 µM; in the assay on BT-549 breast, > 100 µM; in the assay with MDA-N it was > 100 µM; with A549 NSCLC, > 100 µM. In addition, the TGI with HCT-116 colon, in the assay with SNB-75 CNS, in the assay with SW-620 colon, in the assay with SK-MEL-5 melanoma, in the assay on KM12 colon and in the assay with SF-268 CNS was > 100 µM throughout. Further, the TGI in the assay on A498 renal, with SF-295 CNS, in the assay on RXF 393 renal and with HCC-2998 colon was > 100 µM in each case.
For the compound `Cc1ccc(S(=O)(=O)C2=Cc3ccc(C(F)(F)F)cc3C2(O)c2cccc(C(F)(F)F)c2)cc1` (stereo not drawn), the TGI in the assay on EKVX NSCLC came out at 9.83 µM; with PC-3 prostate it was 8.03 µM; with CAKI-1 renal, 14.6 µM; in the assay with BT-549 breast, 5.22 µM; in the assay on MDA-N, 5.88 µM; with A549 NSCLC it was 8.61 µM. The TGI in the assay on HCT-116 colon worked out at 3.03 µM; in the assay on SNB-75 CNS, 13.9 µM; in the assay with SW-620 colon, 3.85 µM; in the assay on SK-MEL-5 melanoma it was 3.35 µM; in the assay with KM12 colon, 4.53 µM; in the assay with SF-268 CNS, 8.65 µM. For the same compound, the TGI in the assay on A498 renal worked out at 3.83 µM; in the assay with SF-295 CNS, 6.87 µM; in the assay with RXF 393 renal it was 6.26 µM; with HCC-2998 colon it was 4.63 µM.
Consider `CCN(CC)c1ccc2cc(-c3nnc(-c4ccccc4)o3)c(=O)oc2c1`, for which the TGI in the assay on EKVX NSCLC, in the assay with PC-3 prostate, in the assay on CAKI-1 renal, in the assay with BT-549 breast, with MDA-N and in the assay with A549 NSCLC was > 100 µM in each case. The TGI was > 100 µM in the assay on HCT-116 colon; 69 µM in the assay with SNB-75 CNS; > 100 µM in the assay on SW-620 colon; > 100 µM with SK-MEL-5 melanoma; > 100 µM with KM12 colon; > 100 µM in the assay with SF-268 CNS. The TGI with A498 renal was > 100 µM; in the assay on SF-295 CNS, > 100 µM; with RXF 393 renal it was > 52.5 µM; in the assay with HCC-2998 colon, > 46.3 µM.
As to `C=CCNC1=C2C[C@@H](C)C[C@@H](OC)[C@@H](OC(=O)CCCN)[C@H](C)/C=C(\C)[C@@H](OC(N)=O)[C@H](OC)/C=C\C=C(/C)C(=O)NC(=CC1=O)C2=O`, the TGI with EKVX NSCLC stood at 39.1 µM; with PC-3 prostate it was 29.1 µM; in the assay with CAKI-1 renal, 35.3 µM; in the assay on BT-549 breast, 25.7 µM; with MDA-N it was 28.4 µM; in the assay on A549 NSCLC it was 32.8 µM. The TGI with HCT-116 colon is 52.9 µM; in the assay with SNB-75 CNS it was 22.2 µM; in the assay with SW-620 colon, > 60 µM; in the assay with SK-MEL-5 melanoma, 33.7 µM; with KM12 colon it was 19.2 µM; in the assay with SF-268 CNS it was 30.7 µM. Moreover, the TGI with A498 renal was determined as 36.3 µM; with SF-295 CNS it was 31.6 µM; in the assay with RXF 393 renal, 42.2 µM; with HCC-2998 colon, 32.9 µM.

For the origin of these results see PubChem BioAssay (NCI).
